pIC50: −log10 of the molar value.
Experiments:
ECV = experiment: Proliferation assay using bladder cancer cell lines, ECV; type: cell-based, human; conditions: Homo sapiens; 72 h culture, CyQuant proliferation assay
IFN-γ production = IFN-γ production in the mixed leukocyte response (MLR); type: cell-based; conditions: 120 h; allogeneic PBMC from 2 donors, 5 days, ELISA; read-out: INF-γ IC50
Procedure: Immature dendritic cells (DC) were prepared as described in Romani, N. et al. (Romani, N. et al. (1996) J. Immunol. Meth. 196:137). IFN-γ production by allogeneic T cell activation in the mixed leukocyte response (MLR) was determined as described in Penna, G., et al., J Immunol., 164: 2405-2411 (2000).
Briefly, peripheral blood mononuclear cells (PBMC) were separated from buffy coats by Ficoll gradient and the same number (3×10^5) of allogeneic PBMC from 2 different donors were co-cultured in 96-well flat-bottom plates. The vitamin D3 compounds were added to each of the cultures.

RT112 = experiment: Proliferation assay using bladder cancer cell lines, RT112; type: cell-based, human; conditions: Homo sapiens, RT-112, 72 h, 72 h culture, CyQuant proliferation assay
Procedure: (§1) Bladder cancer cell lines (T24, RT112, HT1376 and RT4 are human bladder cancer cell lines; NHEK are normal human keratinocytes) were obtained from the European Collection of Cell Cultures (Salisbury, UK). Cells were plated at 3×10^3 per well, in flat bottomed 96-well plates in 100 μl of DMEM medium containing: 5% Fetal Clone I, 50 μg/l gentamicin, 1 mM sodium pyruvate and 1% non-essential amino acids. After culturing for 24 h at 37° C. in 5% CO2, to allow cells to adhere to the plates, VDR ligands (compounds (2), (4), (5) and other vitamin D3 analogs as shown in Table 4) were added at concentrations ranging from 100 μM to 0.3 μM in 100 μl of above-mentioned complete medium. After a further 72 h of culture, cell proliferation was measured using a fluorescence-based proliferation assay kit. (CyQuant Cell Proliferation Assay Kit, Molecular Probes, Eugene, Oreg., USA). The IC50 was calculated from the regression curve of the titration data.

NHEK = experiment: Proliferation assay, NHEK normal human keratinocytes; type: cell-based; conditions: Homo sapiens, NHEK; 72 h culture, CyQuant proliferation assay
Procedure: as §1

non-obese (NOD)/Lt mice = experiment: Inhibition of Type 1 Diabetes development by VDR ligand administration; type: in vivo; conditions: for mice diabetic by 27 weeks of age: vehicle controls about 70%
Procedure: The non-obese (NOD)/Lt mice used for the experiments were purchased from Charles River Laboratories (Calco, Italy). All mice were kept under specific pathogen-free conditions. Glucose levels in the tail venous blood were quantified using a EUROFlash (Lifescan, Issy les Moulineaux, France). A diagnosis of diabetes was after two sequential glucose measurements higher than 200 mg/dl.
1,3-Di-O-acetyl-1,25-dihydroxy-16,23Z-diene-26,27-hexafluoro-19-nor-cholecalciferol (2) was dissolved in ethanol (1 mg/ml) and then diluted in miglyol 812. […]

Compound: CC(=O)OC1C/C(=C/C=C2\CCC[C@]3(C)C(C(C)C/C=C\C(O)(C(F)(F)F)C(F)(F)F)=CCC23)C[C@@H](OC(C)=O)C1 (some centres unmarked) [Compound (2), 1,3-Di-O-acetyl-1,25-dihydroxy-16,23Z-diene-26,27-hexafluoro-19-nor-cholecalciferol]
- pIC50 (ECV): 4.26
- pIC50 (IFN-γ production): 9.14
- pIC50 (RT112): 6.00
- pIC50 (NHEK): 5.01
- Percent Type 1 Diabetes Mellitus incidence (non-obese (NOD)/Lt mice; 0.1 ug/kg p.o., week 8): 2%
- Percent Type 1 Diabetes Mellitus incidence (non-obese (NOD)/Lt mice; 0.1 ug/kg p.o., week 12): 2%
- Percent Type 1 Diabetes Mellitus incidence (non-obese (NOD)/Lt mice; 0.1 ug/kg p.o., week 13): 2%
- Percent Type 1 Diabetes Mellitus incidence (non-obese (NOD)/Lt mice; 0.1 ug/kg p.o., week 14): 2%
- Percent Type 1 Diabetes Mellitus incidence (non-obese (NOD)/Lt mice; 0.1 ug/kg p.o., week 15): 2%
- Percent Type 1 Diabetes Mellitus incidence (non-obese (NOD)/Lt mice; 0.1 ug/kg p.o., week 16): 2%
- Percent Type 1 Diabetes Mellitus incidence (non-obese (NOD)/Lt mice; 0.1 ug/kg p.o., week 17): 10%
- Percent Type 1 Diabetes Mellitus incidence (non-obese (NOD)/Lt mice; 0.1 ug/kg p.o., week 18): 10%
- Percent Type 1 Diabetes Mellitus incidence (non-obese (NOD)/Lt mice; 0.1 ug/kg p.o., week 19): 10%
- Percent Type 1 Diabetes Mellitus incidence (non-obese (NOD)/Lt mice; 0.1 ug/kg p.o., week 20): 10%
- Percent Type 1 Diabetes Mellitus incidence (non-obese (NOD)/Lt mice; 0.1 ug/kg p.o., week 21): 20%
- Percent Type 1 Diabetes Mellitus incidence (non-obese (NOD)/Lt mice; 0.1 ug/kg p.o., week 22): 30%
- Percent Type 1 Diabetes Mellitus incidence (non-obese (NOD)/Lt mice; 0.1 ug/kg p.o., week 23): 30%
- Percent Type 1 Diabetes Mellitus incidence (non-obese (NOD)/Lt mice; 0.1 ug/kg p.o., week 24): 40%
- Percent Type 1 Diabetes Mellitus incidence (non-obese (NOD)/Lt mice; 0.1 ug/kg p.o., week 25): 40%
- Percent Type 1 Diabetes Mellitus incidence (non-obese (NOD)/Lt mice; 0.1 ug/kg p.o., week 26): 40%
- Percent Type 1 Diabetes Mellitus incidence (non-obese (NOD)/Lt mice; 0.1 ug/kg p.o., week 27): 40%
- mice diabetic by 27 weeks of age (non-obese (NOD)/Lt mice; 0.1 mg/Kg per os 5×/week from 8 to 16 weeks of age): 30%
- mice diabetic by 27 weeks of age (non-obese (NOD)/Lt mice; 0.2 mg/Kg per os 5×/week from 8 to 16 weeks of age): 40%
- Percent Type 1 Diabetes Mellitus incidence (non-obese (NOD)/Lt mice; 0.2 mg/kg p.o., week 8): 1%
- Percent Type 1 Diabetes Mellitus incidence (non-obese (NOD)/Lt mice; 0.2 mg/kg p.o., week 12): 1%
- Percent Type 1 Diabetes Mellitus incidence (non-obese (NOD)/Lt mice; 0.2 mg/kg p.o., week 13): 1%
- Percent Type 1 Diabetes Mellitus incidence (non-obese (NOD)/Lt mice; 0.2 mg/kg p.o., week 14): 1%
- Percent Type 1 Diabetes Mellitus incidence (non-obese (NOD)/Lt mice; 0.2 mg/kg p.o., week 15): 1%
- Percent Type 1 Diabetes Mellitus incidence (non-obese (NOD)/Lt mice; 0.2 mg/kg p.o., week 16): 1%
- Percent Type 1 Diabetes Mellitus incidence (non-obese (NOD)/Lt mice; 0.2 mg/kg p.o., week 17): 1%
- Percent Type 1 Diabetes Mellitus incidence (non-obese (NOD)/Lt mice; 0.2 mg/kg p.o., week 18): 1%
- Percent Type 1 Diabetes Mellitus incidence (non-obese (NOD)/Lt mice; 0.2 mg/kg p.o., week 19): 1%
- Percent Type 1 Diabetes Mellitus incidence (non-obese (NOD)/Lt mice; 0.2 mg/kg p.o., week 20): 10%
- Percent Type 1 Diabetes Mellitus incidence (non-obese (NOD)/Lt mice; 0.2 mg/kg p.o., week 21): 10%
- Percent Type 1 Diabetes Mellitus incidence (non-obese (NOD)/Lt mice; 0.2 mg/kg p.o., week 22): 10%
- Percent Type 1 Diabetes Mellitus incidence (non-obese (NOD)/Lt mice; 0.2 mg/kg p.o., week 23): 20%
- Percent Type 1 Diabetes Mellitus incidence (non-obese (NOD)/Lt mice; 0.2 mg/kg p.o., week 24): 20%
- Percent Type 1 Diabetes Mellitus incidence (non-obese (NOD)/Lt mice; 0.2 mg/kg p.o., week 25): 20%
- Percent Type 1 Diabetes Mellitus incidence (non-obese (NOD)/Lt mice; 0.2 mg/kg p.o., week 26): 30%
- Percent Type 1 Diabetes Mellitus incidence (non-obese (NOD)/Lt mice; 0.2 mg/kg p.o., week 27): 30%
- incidence of disease compared to controls (non-obese (NOD)/Lt mice; NOD/Lt female mice, 0.1 or 0.2 mg/Kg per os): significantly lower

From patent publication US20080064668A1, “1,3-Diacylated, 26,27-Alkyl/Haloakyl Vitamin D3 Compounds and Methods of Use Thereof” (BioXell S.p.A., priority 2003, published 2008)
